Source: US8716285B2, “N-hydroxy-benzamids for the treatment of cancer” (Hoffmann-La Roche Inc., priority 2010, dated 2014)

Assays:
[1] = system: p21 promoter-luciferase construct; test: p21 reporter gene induction in HeLa cells transfected with p21 promoter-luciferase construct; type: cell-based; conditions: for p21 RP3: relative gene level of p21 induced compared to MS275 at 3 μM; for p21 RP10: relative level of p21 induced compared to MS275 at 10 μM; for p21 RP30: relative level of p21 induced compared to MS275 at 30 μM
Description: As a surrogate for in-cell HDAC1/2/3 inhibition, p21 induction was used as a counterscreen to evaluate the selectivity of the compounds in the present invention toward HDAC6 or HDAC8.
The novel compounds of the present invention were tested for their ability to induce p21 gene expression using a reporter gene assay involving HeLa cells transfected with a p21 promoter-luciferase construct. The p21 promoter contained the Sp1/Sp3 binding site for HDAC but not the upstream p53 binding site. Briefly, the day before transfection, HeLa cells were seeded at 11,000 cells/well in a 96-well culture plate and incubated at 37° C. in 5% CO2 overnight. A transfection media was prepared prior to transfection according to the following procedure: (1) 5 μl serum-free DMEM, 0.15 μl Fugene 6 reagent, 40 ng p21-luc, 10 ng GFP were mixed gently and incubated at rt for 30 minutes; (2), then 98 μl DMEM (with 10% FBS, 1% penicillin and streptomycin) was added to the DNA: Fugene 6 reagent complex and mixed gently. For transfection, the medium was removed and replaced with 100 μl/well transfection media which was prepared according to the procedure above. After incubating the cells for 24 hours at 37° C. in 5% CO2, fresh media and test compounds were added to the wells and the cells further incubated for 15 hours at 37° C. in 5% CO2. Cells were lysed by adding 80 μl/well of a cell culture lysis reagent (Promega). […] 100 μl luciferase assay reagent (Promega) was then added to every 20 μl cell lysate for luminometer detection. […] Induction activity for specific representative compounds can be found in Table 3.

recombinant human HDAC8 = recombinant human HDAC8 (Homo sapiens (Human), UniProt Q9BY41); test: HDAC8 inhibition: recombinant HDAC8 fluorometric assay; type: biochemical; conditions: recombinant human HDAC8, substrate Ac-Arg-His-Lys-Lys(ε-acetyl)-AMC
Description: A competitive inhibitory assay of HDAC8 was carried out by using recombinant HDAC8 and a commercial substrate Ac-Arg-His-Lys-Lys(ε-acetyl)-AMC.
Compounds were tested for their ability to inhibit histone deacetylase 8 using an in vitro deacetylation assay. The enzyme source for this assay was recombinant human HDAC8 protein expressed and purified from insect cells. […] The substrate consisted of a commercial product Ac-Arg-His-Lys-Lys(ε-acetyl)-AMC (substrate is available from Cayman Chemical). […] In a detailed procedure, 8 μl of HDAC8 enzyme solution (0.125 μg/μl) was transferred to assay plates (CORNING 3676). 1 μl of half-log diluted compounds were added into wells and incubated for 15 min at rt. After that, 8 μl of substrate solution was transferred to the wells and incubated for 30 min at rt. After deacetylation of the substrate by incubation with HDAC8 enzyme, subsequent exposure to a developing reagent produced a fluorophore that was directly proportional to the level of deacetylation. So 4 μl of developer regent (Cayman 10006394) was added into the wells in the assay plates and incubated for 15 min. The fluorescence signal was measured by a FlexStation3 plate reader (excitation wave length 340-360 nm; emission wave length 440-465 nm). The IC50 was calculated after normalization and curve fitting using XLfit4.0 software. Inhibition %=[Mean(top)−signal(sample)]*100/[Mean(top)−Mean(bottom)].

HDAC6 = HDAC6 (Homo sapiens (Human), UniProt Q9UBN7); test: Tubulin acetylation cytoblot assay (A549 cells); type: cell-based; conditions: 17-18 h, concentration for 50% induction of acetylated tubulin, read-out: Tub-ac EC50
Description: Tubulin acetylation is a PD marker for HDAC6 inhibition. The extent of tubulin acetylation represents the inhibitory effect on HDAC6.
Novel compounds were tested for their ability to inhibit HDAC6 using a cell-based deacetylation assay. Tubulin acetylation was detected by the anti-acetylated tubulin antibody (Sigma) and horse radish peroxidase (HRP) conjugated secondary antibody (KangChen Bio. Tech.). […] 20 μl of diluted compound solution was transferred to the cell culture plate and incubated for 17-18 h. After medium removal and fixation by formaldehyde (3.7% paraformaldehyde in TBS), the cells in the plates were treated with 180 μl of −20° C. MeOH and incubated for 5 min at rt. The cell lysis was incubated with 75 μl of primary anti-acetylated tubulin antibody and secondary HRP conjugated antibody solution (1:750 anti-acetylated tubulin, 1:750 HRP conjugated anti-mouse IgG in antibody dilution buffer not containing sodium azide) for 4 h at 4° C. By adding the HRP substrate, enhanced chemiluminescence (ECL) reagent (GE Healthcare) generated luminescence corresponding to the level of tubulin acetylation. So that 75 μl of ECL was added into the wells and the luminescence from each well was immediately quantified by the plate reader. Based on the luminescence reading, the IC50s against HDAC6 of the tested compounds were calculated by plotting the curve with XLfit4.0 software. Inhibition %=[signal(sample)−Mean(bottom)]*100/[Mean(top)−Mean(bottom)]

recombinant human HDAC8, sequence (Q9BY41 whole entry): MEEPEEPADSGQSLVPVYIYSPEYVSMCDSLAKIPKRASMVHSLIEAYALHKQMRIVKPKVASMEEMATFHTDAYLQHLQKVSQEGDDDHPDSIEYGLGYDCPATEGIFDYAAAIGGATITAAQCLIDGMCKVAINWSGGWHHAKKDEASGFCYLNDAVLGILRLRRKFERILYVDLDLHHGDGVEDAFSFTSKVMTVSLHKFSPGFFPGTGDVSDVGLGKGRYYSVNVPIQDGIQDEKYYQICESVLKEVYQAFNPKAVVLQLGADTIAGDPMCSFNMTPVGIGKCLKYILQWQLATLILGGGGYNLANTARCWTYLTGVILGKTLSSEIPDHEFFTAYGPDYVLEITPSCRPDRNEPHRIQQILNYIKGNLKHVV
HDAC6, sequence (Q9UBN7 whole entry): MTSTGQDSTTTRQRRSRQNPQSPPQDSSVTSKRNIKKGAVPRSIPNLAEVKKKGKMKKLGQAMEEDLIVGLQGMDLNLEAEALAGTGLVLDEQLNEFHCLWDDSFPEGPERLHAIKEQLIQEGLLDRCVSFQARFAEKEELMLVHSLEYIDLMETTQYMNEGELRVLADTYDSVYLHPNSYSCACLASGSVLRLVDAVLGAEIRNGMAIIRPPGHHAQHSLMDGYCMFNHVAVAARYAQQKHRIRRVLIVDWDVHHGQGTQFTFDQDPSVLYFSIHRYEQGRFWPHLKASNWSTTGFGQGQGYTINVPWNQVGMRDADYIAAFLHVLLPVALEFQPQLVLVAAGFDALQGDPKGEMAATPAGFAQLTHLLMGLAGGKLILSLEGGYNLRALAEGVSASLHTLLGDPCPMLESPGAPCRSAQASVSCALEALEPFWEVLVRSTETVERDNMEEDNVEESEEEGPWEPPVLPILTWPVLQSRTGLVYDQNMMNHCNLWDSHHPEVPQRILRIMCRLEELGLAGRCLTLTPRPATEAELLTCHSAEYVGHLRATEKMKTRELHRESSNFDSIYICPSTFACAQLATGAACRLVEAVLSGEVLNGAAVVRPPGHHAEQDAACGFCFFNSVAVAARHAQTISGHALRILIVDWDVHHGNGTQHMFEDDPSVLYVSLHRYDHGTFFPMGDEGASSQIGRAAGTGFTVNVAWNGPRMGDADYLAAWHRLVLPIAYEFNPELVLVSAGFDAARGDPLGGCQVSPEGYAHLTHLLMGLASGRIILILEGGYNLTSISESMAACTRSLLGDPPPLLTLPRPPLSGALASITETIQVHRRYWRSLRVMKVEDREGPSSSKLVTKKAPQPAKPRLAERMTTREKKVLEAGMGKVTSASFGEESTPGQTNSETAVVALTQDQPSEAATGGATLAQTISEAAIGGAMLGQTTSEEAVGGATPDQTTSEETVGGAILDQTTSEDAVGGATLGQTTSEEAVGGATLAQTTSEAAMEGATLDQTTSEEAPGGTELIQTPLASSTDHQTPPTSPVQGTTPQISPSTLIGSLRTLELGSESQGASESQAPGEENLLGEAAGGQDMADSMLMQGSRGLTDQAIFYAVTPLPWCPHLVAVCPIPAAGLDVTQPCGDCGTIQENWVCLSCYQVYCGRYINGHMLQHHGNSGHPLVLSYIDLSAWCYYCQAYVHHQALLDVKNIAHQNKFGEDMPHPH

Row | Structure (SMILES) | p21 RP3 [1] | p21 RP10 [1] | p21 RP30 [1] | IC50 (recombinant human HDAC8) [µM] | EC50 (HDAC6) [µM]
1 | O=C(NO)c1ccc2c(c1)CC(Nc1nccc(-c3ccc(Cl)cc3Cl)n1)CC2 (stereo not shown) [Example 20, 7-[4-(2,4-Dichloro-phenyl)-pyrimidin-2-ylamino]-5,6,7,8-tetrahydro-naphthalene-2-carboxylic acid hydroxyamide] | −0.71 | −0.44 | −0.40 | 1.52 | 6.2
2 | O=C(NO)c1ccc2c(c1)CC(Nc1nccc(-c3ccc(N4CCOCC4)nc3)n1)CC2 (stereo not shown) [Example 31, 7-[4-(6-Morpholin-4-yl-pyridin-3-yl)-pyrimidin-2-ylamino]-5,6,7,8-tetrahydro-naphthalene-2-carboxylic acid hydroxyamide] | 0.18 | 0.19 | 0.12 | 0.32 | 6.7
3 | O=C(NO)c1ccc2c(c1)CC(NC(=O)c1cccc(Cl)c1)CN2 (stereo not shown) [Example 56, 3-(3-Chloro-benzoylamino)-1,2,3,4-tetrahydro-quinoline-6-carboxylic acid hydroxyamide] | 0.04 | 0.05 | 0.12 | 3.37 | 3.43
4 | CCOc1cc(C)nc(NC2CCc3ccc(C(=O)NO)cc3C2)n1 (stereo not shown) [Example 9, 7-(4-Ethoxy-6-methyl-pyrimidin-2-ylamino)-5,6,7,8-tetrahydro-naphthalene-2-carboxylic acid hydroxyamide] | −0.21 | −0.03 | −0.10 | 0.29 | 1.68
5 | Cc1cncc(-c2ccnc(NC3CCc4ccc(C(=O)NO)cc4C3)n2)c1 (stereo not shown) [Example 26, 7-[4-(5-Methyl-pyridin-3-yl)-pyrimidin-2-ylamino]-5,6,7,8-tetrahydro-naphthalene-2-carboxylic acid hydroxyamide] | 0.68 | 0.20 | −0.05 | 0.52 | 1.52
6 | O=C(NO)c1ccc2c(c1)CC(NC(=O)c1ccc(Cl)cc1)CN2 (stereo not shown) [Example 55, 3-(4-Chloro-benzoylamino)-1,2,3,4-tetrahydro-quinoline-6-carboxylic acid hydroxyamide] | 0.50 | 0.13 | 0.06 | 2.41 | 2.69
7 | COc1ccc(-c2ccnc(NC3CCc4ccc(C(=O)NO)cc4C3)n2)c(OC)c1 (stereo not shown) [Example 18, 7-[4-(2,4-Dimethoxy-phenyl)-pyrimidin-2-ylamino]-5,6,7,8-tetrahydro-naphthalene-2-carboxylic acid hydroxyamide] | 0.43 | 0.06 | −0.06 | 1.23 | 1.37
8 | O=C(NO)c1ccc2c(c1)CC(Nc1nccc(-c3ccc(F)c(Cl)c3)n1)CC2 (stereo not shown) [Example 22, 7-[4-(3-Chloro-4-fluoro-phenyl)-pyrimidin-2-ylamino]-5,6,7,8-tetrahydro-naphthalene-2-carboxylic acid hydroxyamide] | −0.87 | −0.59 | −0.52 | 2.24 | 6
9 | O=C(NO)c1ccc2c(c1)CC(Nc1nccc(-c3ccc(C(F)(F)F)cc3)n1)CC2 (stereo not shown) [Example 19, 7-[4-(4-Trifluoromethyl-phenyl)-pyrimidin-2-ylamino]-5,6,7,8-tetrahydro-naphthalene-2-carboxylic acid hydroxyamid] | −0.18 | −0.26 | −0.29 | 1.69 | 5
10 | O=C(NO)c1ccc2c(c1)CC(NS(=O)(=O)c1cccnc1)CC2 (stereo not shown) [Example 48, 7-(Pyridine-3-sulfonylamino)-5,6,7,8-tetrahydro-naphthalene-2-carboxylic acid hydroxyamide] | 0.41 | 0.17 | 0.17 | 0.37 | 6.2
11 | O=C(NO)c1ccc2c(c1)CC(NC(=O)c1cccc(C(F)(F)F)c1)CN2 (stereo not shown) [Example 57, 3-(3-Trifluoromethyl-benzoylamino)-1,2,3,4-tetrahydro-quinoline-6-carboxylic acid hydroxyamide] | 0.07 | 0.01 | 0.04 | 2.67 | 7.13
12 | O=C(NO)c1ccc2c(c1)CC(NS(=O)(=O)c1ccc(Cl)c(Cl)c1)CC2 (stereo not shown) [Example 47, 7-(3,4-Dichloro-benzenesulfonylamino)-5,6,7,8-tetrahydro-naphthalene-2-carboxylic acid hydroxyamide] | 0.08 | 0.01 | −0.04 | 0.47 | 3.42
13 | COc1ccc(S(=O)(=O)NC2CCc3ccc(C(=O)NO)cc3C2)cc1OC (stereo not shown) [Example 45, 7-(3,4-Dimethoxy-benzenesulfonylamino)-5,6,7,8-tetrahydro-naphthalene-2-carboxylic acid hydroxyamide] | 0.18 | 0.18 | 0.46 | 0.39 | 3.43
14 | Cc1cc(Cl)ccc1-c1ccnc(NC2CCc3ccc(C(=O)NO)cc3C2)n1 (stereo not shown) [Example 21, 7-[4-(4-Chloro-2-methyl-phenyl)-pyrimidin-2-ylamino]-5,6,7,8-tetrahydro-naphthalene-2-carboxylic acid hydroxyamide] | −0.24 | −0.28 | −0.32 | 2.15 | 9.53
15 | O=C(NO)c1ccc2c(c1)CC(NS(=O)(=O)c1cccc(C(F)(F)F)c1)CC2 (stereo not shown) [Example 43, 7-(3-Trifluoromethyl-benzenesulfonylamino)-5,6,7,8-tetrahydro-naphthalene-2-carboxylic acid hydroxyamid] | 0.13 | 0.08 | −0.04 | 0.37 | 3.85
16 | O=C(NO)c1ccc2c(c1)CC(Nc1nccc(-c3ccc(F)cc3)n1)CC2 (stereo not shown) [Example 12, 7-[4-(4-Fluoro-phenyl)-pyrimidin-2-ylamino]-5,6,7,8-tetrahydro-naphthalene-2-carboxylic acid hydroxyamide] | 0.10 | 0.00 | −0.10 | 0.26 | 0.97
17 | Cc1ccc(-c2ccnc(NC3CCc4ccc(C(=O)NO)cc4C3)n2)c(F)c1 (stereo not shown) [Example 17, 7-[4-(2-Fluoro-4-methyl-phenyl)-pyrimidin-2-ylamino]-5,6,7,8-tetrahydro-naphthalene-2-carboxylic acid hydroxyamide] | −0.56 | −0.47 | −0.45 | 1.1 | 2.3
